In patent US11773078B2, “Furin inhibitors” (Glaxosmithkline Intellectual Property Development Limited, priority 2018, dated 2023):

How the values were obtained:
[1] = target: T1, furin (endogenous protease) in U20S cells (Homo sapiens, UniProt P09958); experiment: Furin cell-based assay (image-based, Golgi-targeted GFP with BMP10 furin/PCSK cleavage site); details: 24-hour incubation, read-out: furin golgi cell pXC50 (converted);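 further: Read-out is mean GFP fluorescence of Golgi puncta per cell by high-content imaging, retained when furin inhibited, over an eleven-point 0.00017–10 µM series, four-parameter fit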
T1 construct: the endogenous protease cleaves GFP; endogenous in cells; host or cells: U2OS cells transduced with a BacMam reporter
T1 sequence (P09958 108-794): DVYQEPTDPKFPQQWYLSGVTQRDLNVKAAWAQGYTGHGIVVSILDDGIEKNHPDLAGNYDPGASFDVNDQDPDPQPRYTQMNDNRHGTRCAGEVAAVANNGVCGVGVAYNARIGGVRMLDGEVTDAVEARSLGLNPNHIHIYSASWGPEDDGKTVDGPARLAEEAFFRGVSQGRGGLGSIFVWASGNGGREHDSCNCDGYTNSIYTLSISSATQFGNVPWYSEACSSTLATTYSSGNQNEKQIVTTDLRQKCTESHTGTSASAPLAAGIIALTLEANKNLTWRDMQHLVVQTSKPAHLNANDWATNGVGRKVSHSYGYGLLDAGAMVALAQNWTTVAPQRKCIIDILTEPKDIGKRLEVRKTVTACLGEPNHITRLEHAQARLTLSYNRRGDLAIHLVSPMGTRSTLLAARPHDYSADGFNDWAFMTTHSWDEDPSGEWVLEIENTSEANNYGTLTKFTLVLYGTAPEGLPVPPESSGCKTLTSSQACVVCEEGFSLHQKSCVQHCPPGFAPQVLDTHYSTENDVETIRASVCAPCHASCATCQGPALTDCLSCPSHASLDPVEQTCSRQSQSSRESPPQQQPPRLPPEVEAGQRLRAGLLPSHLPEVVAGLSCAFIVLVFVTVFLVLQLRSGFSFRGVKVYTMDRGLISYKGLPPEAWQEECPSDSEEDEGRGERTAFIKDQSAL

[2] = target: T2, Furin (108-574-Tev-Flag-His) enzyme (Homo sapiens, UniProt P09958); experiment: Furin enzyme assay; format: biochemical
T2 construct: Furin (108-574-Tev-Flag-His) enzyme was expressed and purified from CHO cells; TEV cleavage site (C); FLAG (C); His (C); made in house; host or cells: CHO cells
T2 sequence (P09958 108-574): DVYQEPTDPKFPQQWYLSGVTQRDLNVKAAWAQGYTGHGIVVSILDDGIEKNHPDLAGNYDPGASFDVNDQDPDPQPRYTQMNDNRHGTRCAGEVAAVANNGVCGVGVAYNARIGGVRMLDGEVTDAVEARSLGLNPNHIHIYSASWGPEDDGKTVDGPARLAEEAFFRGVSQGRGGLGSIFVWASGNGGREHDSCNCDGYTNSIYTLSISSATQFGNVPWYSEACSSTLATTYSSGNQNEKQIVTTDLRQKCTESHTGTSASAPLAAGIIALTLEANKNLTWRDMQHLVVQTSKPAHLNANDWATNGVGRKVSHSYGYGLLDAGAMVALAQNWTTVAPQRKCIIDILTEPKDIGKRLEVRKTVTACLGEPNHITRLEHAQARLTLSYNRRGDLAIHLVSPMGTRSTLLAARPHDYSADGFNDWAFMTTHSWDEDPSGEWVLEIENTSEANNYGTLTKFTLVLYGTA
Summary of the method: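 Compounds ran as 11-point threefold dilutions (0.00017–10 μM final) against 40 pM furin, purified from CHO cells, for 2 h at room temperature. Buffer: 100 mM HEPES pH7.5 with 1 mM CaCl2 and 0.005% Triton X-100. Envision readout. Four-parameter curve gives pXC50.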

Row | EC50 [1] [nM] | furin enzyme pIC50 [2] | SMILES
1 | 12.6 | 8 | FC1CCN(Cc2cc(Oc3cnc(N4CCN5CCC4C5)nc3)nc(-c3cc(Cl)cc(Cl)c3)c2)CC1 (stereo not drawn) [Example 338, 4-(5-((6-(3,5-dichlorophenyl)-4-((4-fluoropiperidin-1-yl)methyl)pyridin-2-yl)oxy)pyrimidin-2-yl)-1,4-diazabicyclo[3.2.1]octane]
2 | 10 | 8.8 | CC(CCN1CCN(c2cnc(Oc3cc(CN4CCC(CCO)CC4)cc(-c4cc(Cl)cc(Cl)c4)n3)cn2)CC1)C(=O)O (stereo not drawn) [Example 341, 4-(4-(5-((6-(3,5-dichlorophenyl)-4-((4-(2-hydroxyethyl)piperidin-1-yl)methyl)pyridin-2-yl)oxy)pyrazin-2-yl)piperazin-1-yl)-2-methylbutanoic acid]
3 | 5.01 | 8.7 | OCCC1CCN(Cc2cc(Oc3cnc(N4CCNCC4)cn3)nc(-c3cc(Cl)cc(Cl)c3)c2)CC1 [Example 342, 2-(1-((2-(3,5-dichlorophenyl)-6-((5-(piperazin-1-yl)pyrazin-2-yl)oxy)pyridin-4-yl)methyl)piperidin-4-yl)ethanol]
4 | 63.1 | 8.7 | CC(C)(O)CN1CCN(c2cnc(Oc3cc(CN4CCC(CC(=O)O)CC4)cc(-c4cc(Cl)cc(Cl)c4)n3)cn2)CC1 [Example 343, 2-(1-((2-(3,5-dichlorophenyl)-6-((5-(4-(2-hydroxy-2-methylpropyl)piperazin-1-yl)pyrazin-2-yl)oxy)pyridin-4-yl)methyl)piperidin-4-yl)acetic acid]
5 | 79.4 | 8.4 | O=C(O)CC1CCN(Cc2cc(Oc3ccc(N4CCN5CCC4C5)nn3)nc(-c3cc(Cl)cc(Cl)c3)c2)CC1 (stereo not drawn) [Example 344, 2-(1-((2-((6-(1,4-diazabicyclo[3.2.1]octan-4-yl)pyridazin-3-yl)oxy)-6-(3,5-dichlorophenyl)pyridin-4-yl)methyl)piperidin-4-yl)acetic acid]
6 | 12.6 | 8.6 | CCN1CCCN(c2cnc(Oc3cc(CN4CCC(CC(=O)O)CC4)cc(-c4cc(Cl)cc(Cl)c4)n3)cn2)CC1 [Example 345, 2-(1-((2-(3,5-dichlorophenyl)-6-((5-(4-ethyl-1,4-diazepan-1-yl)pyrazin-2-yl)oxy)pyridin-4-yl)methyl)piperidin-4-yl)acetic acid]
7 | 12.6 | 8.5 | CN1C[C@@H]2C[C@H]1CN2c1cnc(Oc2cc(CN3CCC(CC(=O)O)CC3)cc(-c3cc(Cl)cc(Cl)c3)n2)cn1 [Example 346, 2-(1-((2-(3,5-dichlorophenyl)-6-((5-((1S,4S)-5-methyl-2,5-diazabicyclo+2.2.1+heptan-2-yl)pyrazin-2-yl)oxy)pyridin-4-yl)methyl)piperidin-4-yl)acetic acid]
8 | 15.8 | 8.5 | CC(C)N1CCN(c2cnc(Oc3cc(CN4CCC(CC(=O)O)CC4)cc(-c4cc(Cl)cc(Cl)c4)n3)cn2)CC1 [Example 347, 2-(1-((2-(3,5-dichlorophenyl)-6-((5-(4-isopropylpiperazin-1-yl)pyrazin-2-yl)oxy)pyridin-4-yl)methyl)piperidin-4-yl)acetic acid]
9 | 50.1 | 8.4 | O=C(O)CC1CCN(Cc2cc(Oc3cnc(N4CCN5CCC4C5)cn3)nc(-c3cc(Cl)cc(Cl)c3)c2)CC1 (stereo not drawn) [Example 348, 2-(1-((2-((5-(1,4-diazabicyclo[3.2.1]octan-4-yl)pyrazin-2-yl)oxy)-6-(3,5-dichlorophenyl)pyridin-4-yl)methyl)piperidin-4-yl)acetic acid]
10 | 10 | 8.6 | CC(O)CCN1CCN(c2cnc(Oc3cc(CN4CCC(CC(=O)O)CC4)cc(-c4cc(Cl)cc(Cl)c4)n3)cn2)CC1 (stereo not drawn) [Example 349, 2-(1-((2-(3,5-dichlorophenyl)-6-((5-(4-(3-hydroxybutyl)piperazin-1-yl)pyrazin-2-yl)oxy)pyridin-4-yl)methyl)piperidin-4-yl)acetic acid]
11 | 1.26 | 8.6 | CN1CCN(c2cnc(Oc3cc(CN4CCC(CCO)CC4)cc(-c4cc(Cl)cc(Cl)c4)n3)cn2)CC1 [Example 350, 2-(1-((2-(3,5-dichlorophenyl)-6-((5-(4-methylpiperazin-1-yl)pyrazin-2-yl)oxy)pyridin-4-yl)methyl)piperidin-4-yl)ethanol]
12 | 25.1 | 9.4 | CC(CC1CCN(Cc2cc(Oc3cnc(N4CCCN(C)CC4)cn3)nc(-c3cc(Cl)cc(Cl)c3)c2)CC1)C(=O)O (stereo not drawn) [Example 351, 3-(1-((2-(3,5-dichlorophenyl)-6-((5-(4-methyl-1,4-diazepan-1-yl)pyrazin-2-yl)oxy)pyridin-4-yl)methyl)piperidin-4-yl)-2-methylpropanoic acid]
13 | 25.1 | 8.1 | CN1CCN(c2cnc(Oc3cc(CN4CCC(OC5(C(=O)O)CC5)CC4)cc(-c4cc(Cl)cc(Cl)c4)n3)cn2)CC1 [Example 353, 1-((1-((2-(3,5-dichlorophenyl)-6-((5-(4-methylpiperazin-1-yl)pyrazin-2-yl)oxy)pyridin-4-yl)methyl)piperidin-4-yl)oxy)cyclopropanecarboxylic acid]
14 | 25.1 | 8.1 | CS(=O)(=O)CCCN1CCN(c2cnc(Oc3cc(CN4CCC(CC(=O)O)CC4)cc(-c4cc(Cl)cc(Cl)c4)n3)cn2)CC1 [Example 354, 2-(1-((2-(3,5-dichlorophenyl)-6-((5-(4-(3-(methylsulfonyl)propyl)piperazin-1-yl)pyrazin-2-yl)oxy)pyridin-4-yl)methyl)piperidin-4-yl)acetic acid]
15 | 10 | 8.6 | CCN1CCCN(c2ccc(Oc3cc(CN4CCC(CC(=O)O)CC4)cc(-c4cc(Cl)cc(Cl)c4)n3)nn2)CC1 [Example 355, 2-(1-((2-(3,5-dichlorophenyl)-6-((6-(4-ethyl-1,4-diazepan-1-yl)pyridazin-3-yl)oxy)pyridin-4-yl)methyl)piperidin-4-yl)acetic acid]
16 | 31.6 | 8.6 | CN1CCCN(c2ccc(Oc3cc(CN4CCC(CC(=O)O)CC4)cc(-c4cc(Cl)cc(Cl)c4)n3)nn2)CC1 [Example 356, 2-(1-((2-(3,5-dichlorophenyl)-6-((6-(4-methyl-1,4-diazepan-1-yl)pyridazin-3-yl)oxy)pyridin-4-yl)methyl)piperidin-4-yl)acetic acid]
17 | 100 | 8.5 | CN1C[C@@H]2C[C@H]1CN2c1ccc(Oc2cc(CN3CCC(CC(=O)O)CC3)cc(-c3cc(Cl)cc(Cl)c3)n2)nn1 [Example 357, 2-(1-((2-(3,5-dichlorophenyl)-6-((6-((1S,4S)-5-methyl-2,5-diazabicyclo[2.2.1]heptan-2-yl)pyridazin-3-yl)oxy)pyridin-4-yl)methyl)piperidin-4-yl)acetic acid]

Row | SMILES | EC50 [1] [nM] | furin enzyme pIC50 [2]
18 | CN1C2CC1CN(c1cnc(Oc3cc(CN4CCC(CC(=O)O)CC4)cc(-c4cc(Cl)cc(Cl)c4)n3)cn1)C2 [Example 352, 2-(1-((2-(3,5-dichlorophenyl)-6-((5-(6-methyl-3,6-diazabicyclo[3.1.1]heptan-3-yl)pyrazin-2-yl)oxy)pyridin-4-yl)methyl)piperidin-4-yl)acetic acid] | 50.1 | 8.2
